Data from patent publication US20240102991A1, “Synthetic Fluorescent Protein Biosensors and Use Thereof in Drug Screening Methods” (The Regents of the University of Colorado, a body corporate, priority 2017, published 2024).

System: biosensor expressing cells (HEK293T)
Format: cell-based, human

In the case of Cholera Toxin, the “biosensors that respond in some way to the single drug treatment” value is reported as greater than 80%.
